Measured values taken from patent US20250235467A1, “DENDRITIC CELL VACCINATION IN PARALLEL TO CHEMOTHERAPY” (priority 2018, published 2025).
Read-outs that look alike come from different tables or passages of the source. Marks after values point to notes of the source that are not given here.

Columns and labels:
[1] = tested on: platinum-sensitive recurrent ovarian cancer; details: cited from earlier work; for PFS HR: p <0.0001
[2] = tested on: relapsed platinum-sensitive epithelial ovarian cancer; experiment: Randomized, open-label phase II clinical trial, DC vaccine added to carboplatin and gemcitabine vs chemotherapy alone; assay type: in vivo, human; details: ITT population, N = 32 per group
Excerpt: An interim analysis was first performed, followed later by the final analysis.
A total of 6, 8, or 10 cycles of standard of care chemotherapy were to be completed by patients in both treatment groups as per investigators' decision (FIG. 4).

[3] = tested on: newly diagnosed epithelial ovarian carcinoma
Method: The study was conducted as an open label, multicenter phase II clinical trial in women with newly diagnosed epithelial ovarian carcinoma who have undergone debulking surgery.
The planned number of chemotherapy cycles was 6 in all treatment groups (FIG. 1).
Results were calculated either by using as beginning of the trial period the time of first treatment or the time of randomization. Two pre-planned per protocol interim analyses of PFS and OS were performed first at 6 months and second at 12 months after the last dose of standard of care chemotherapy of the last enrolled patient. […]

[4] = tested on: metastatic stage IV non-small cell lung cancer (NSCLC); experiment: Open label, multicenter phase II clinical trial, DCVAC/LuCa + carboplatin and paclitaxel vs carboplatin and paclitaxel alone; assay type: in vivo, human; details: PP population; interim analysis of PFS
Method: The purpose of the study is to compare efficacy of DCVAC/LuCa+chemotherapy (carboplatin and paclitaxel) vs. carboplatin and paclitaxel alone in patients with stage IV NSCLC, as measured by OS and progression free survival (PFS). PFS was measured based on radiological assessments according to the RECIST (Response Evaluation Criteria in Solid Tumors) guidelines (version 1.1) (Eisenhauer et al. 2009).
The planned number of chemotherapy cycles was 4-6 in all treatment groups (FIG. 7).

[5] = group A: after the start of DC vaccine treatment, group B: shorter reporting time period

Question: With Bevacizumab as the substance, how does the “OS HR” value ([1]; bevacizumab 15 mg/kg IV q3w + carboplatin AUC4 + gemcitabine, p 0.6479) read?
Answer: 0.952^c

Question: And the “OS HR” value ([1]; bevacizumab 15 mg/kg IV q3w + carboplatin AUC4 + gemcitabine, p 0.6479, listed as bevacizumab)?
Answer: 0.952

Question: And the “PFS HR” value ([1]; bevacizumab 15 mg/kg IV q3w + carboplatin AUC4 + gemcitabine)?
Answer: 0.48^c

Question: What about the “OS HR” value ([1]; bevacizumab 15 mg/kg IV q3w + carboplatin AUC5 + paclitaxel, p 0.0447) of the same substance?
Answer: 0.823^c

Question: And the “OS HR” value ([1]; bevacizumab 15 mg/kg IV q3w + carboplatin AUC5 + paclitaxel, p 0.0447, listed as bevacizumab)?
Answer: 0.823

Question: What about the “PFS HR” value ([1]; bevacizumab 15 mg/kg IV q3w + carboplatin AUC5 + paclitaxel) of the same substance?
Answer: 0.613^c

Question: With carboplatin and gemcitabine as the substance, how does the “No. of 2nd-line chemotherapy non-responders: n (%)” value [2] read?
Answer: 0 (0.00%) n (%)

Question: Which “No. of 1st-line chemotherapy non-responders: n (%)” value ([3]; ITT population, N = 31 per group) does the source give for carboplatin and paclitaxel here?
Answer: 0 (0.00%) n (%)

Question: What about the “Number of SAEs reported” value [3, 5] of the same substance?
Answer: 14

Question: And the “Number of patients in whom SAEs were reported” value [3, 5]?
Answer: 9

Question: What about the “Progression of the lung cancer disease” value [4] of the same substance?
Answer: progressed for all patients
